Experimental data as given in patent publication US20240101572A1, “DIHYDROOXADIAZINONE COMPOUND AND PHARMACEUTICAL USE THEREOF” (Japan Tobacco Inc., priority 2022, published 2024).
pIC50: −log10 of the molar value.

Legend:
full-length human PLD2 = full-length human PLD2 (Homo sapiens (Human), UniProt O14939); assay: Evaluation of human PLD2 enzyme inhibitory activity (Amplex Red / choline oxidase fluorescence); format: biochemical; settings: full-length human PLD2 enzyme; read-out: PLD2 IC50
Experimental: A method for measuring human PLD2 enzyme inhibitory activity using an enzyme in which a FLAG-tag is added to the N-terminus of full-length human PLD2 (1-933 amino acids) is shown below.
(§1) DNA fragment in which a FLAG-tag sequence is added to the 5′-end of full-length human PLD2 was amplified by PCR method, using commercially available human PLD2 gene (Promega KK) as a template. The amplified DNA fragment was fused with vector pVL1393 for baculovirus production (Pharmingen) digested with BamHI and EcoRI, using In-Fusion HD Cloning Kit (Takara Bio). The full-length human PLD2-expression plasmid DNA for baculovirus was isolated from Escherichia coli DH5a (TOYOBO) transformed with the obtained In-Fusion reaction product. Next, DNA fragment in which a FLAG-tag sequence is added to the 5′-end of full-length human PLD2 was amplified by PCR method, using the full-length human PLD2-expression plasmid DNA for baculovirus as a template. The amplified DNA fragment was fused with a DNA fragment in which a linker sequence is introduced into pcDNA3.4-TOPO (Life Technologies), using In-Fusion HD Cloning Kit (Takara Bio). The full-length human PLD2-expression plasmid DNA for animal cells was isolated from Escherichia coli DH5a transformed with the obtained In-Fusion reaction product. The base sequence of the full-length human PLD2 cloned into vector was determined by a Dye Terminator method using BigDye Terminator v3.1 Cycle Sequencing Kit (Applied Biosystems). The determined sequence was a sequence in which the FLAG-tag sequence was inserted at the 5′-end of the full-length human PLD2 (GenBank Accession Number: NM 002663).
(§2) Expi293F cells (Life Technologies) were cultured with shaking using Expi293 Expression Medium (Life Technologies) as a medium at 37° C. in the presence of 8% CO2. The gene introduction reagent PEI was prepared by dissolving Polyethylenimine Max (nominally MW 40,000) (Polysciences) in MilliQ water, adjusting the pH of the solution to 7.0 with NaOH to obtain a 1 mg/mL solution, and then filtering the solution through 0.22 μm filter. The full-length human PLD2-expression plasmid DNA for animal cells was transfected into Expi293F cells using PEI, and after 48 hours of shaking culture, the cells were collected and stored at −80° C.
(§3) To the full-length human PLD2-expressed cells was added a Homogenate buffer (20 mmol/L Na-phosphate pH 7.5, 250 mmol/L NaCl, 1 mmol/L MgCl2, 1% β-OG, 0.05 mmol/L DTT+complete EDTA-free (Roche Diagnostics K.K.)), and the cells were lysed by Microfluidizer Processor M-110EH (Mizuho Kogyo Co., Ltd.). The lysate was centrifuged at 10,100×g at 4° C. for 15 minutes, and the supernatant was collected and filtered through 0.45 μm filter. To the centrifuged supernatant was added ANTI-FLAG M2 Affinity Gel (SIGMA-Aldrich) resin equilibrated with a Homogenate buffer, and the mixed solution was stirred at 4° C. for 1 hr or more. The mixed solution was loaded onto Poly-Prep column, and the resin was washed with a Wash buffer (20 mmol/L Na-phosphate pH 7.5, 150 mmol/L NaCl, 1 mmol/L MgCl2, 0.02% Triton, 0.05 mmol/L DTT). A Wash buffer containing 400 μg/mL DYKDDDDK Peptide (Scrum Inc.) was added to the column to elute the protein bound to the resin. The eluted fractions were subjected to SDS-PAGE followed by CBB staining to identify the fractions containing the full-length human PLD2. The eluted fractions of the full-length human PLD2 were collected and concentrated using Amicon Ultra-15 100k (Merck Millipore). The concentrated fractions were collected, flash-frozen in liquid nitrogen and stored at −80° C.
(§4) A DMSO or test substance solution (the DMSO final concentration: 5%) prepared by diluting DMSO or test substance with an Assay buffer (50 mmol/L HEPES pH 7.5, 80 mmol/L KCl, 3 mmol/L EGTA, 3.6 mmol/L MgCl2, 0.01% NP-40, 0.1% BSA), and the solution was added to a 384 well Assay Plate (Black, Polystyrene, Non-Treated, Cat No. 3573, Corning) by 5 μL/well. […]

full-length human PLD1 = full-length human PLD1 (Homo sapiens (Human), UniProt Q13393); assay: Evaluation of human PLD1 enzyme inhibitory activity (Amplex Red / choline oxidase fluorescence); format: biochemical; settings: full-length human PLD1 enzyme; read-out: PLD1 IC50
Experimental: A method for measuring human PLD1 enzyme inhibitory activity using an enzyme in which a FLAG-tag is added to the N-terminus of full-length human PLD1 (1-1036 amino acids) is shown below.
as §1, with “PLD1” for “PLD2”, “PLD1-expression” for “PLD2-expression”, “NM_001130081).” for “NM 002663).”
as §2, with “PLD1-expression” for “PLD2-expression”
as §3, with “PLD1-expressed” for “PLD2-expressed”, “PLD1.” for “PLD2.”, “PLD1” for “PLD2”
as §4

Sequence of full-length human PLD1 (Q13393 other isoform, or with tags, fused parts or gaps): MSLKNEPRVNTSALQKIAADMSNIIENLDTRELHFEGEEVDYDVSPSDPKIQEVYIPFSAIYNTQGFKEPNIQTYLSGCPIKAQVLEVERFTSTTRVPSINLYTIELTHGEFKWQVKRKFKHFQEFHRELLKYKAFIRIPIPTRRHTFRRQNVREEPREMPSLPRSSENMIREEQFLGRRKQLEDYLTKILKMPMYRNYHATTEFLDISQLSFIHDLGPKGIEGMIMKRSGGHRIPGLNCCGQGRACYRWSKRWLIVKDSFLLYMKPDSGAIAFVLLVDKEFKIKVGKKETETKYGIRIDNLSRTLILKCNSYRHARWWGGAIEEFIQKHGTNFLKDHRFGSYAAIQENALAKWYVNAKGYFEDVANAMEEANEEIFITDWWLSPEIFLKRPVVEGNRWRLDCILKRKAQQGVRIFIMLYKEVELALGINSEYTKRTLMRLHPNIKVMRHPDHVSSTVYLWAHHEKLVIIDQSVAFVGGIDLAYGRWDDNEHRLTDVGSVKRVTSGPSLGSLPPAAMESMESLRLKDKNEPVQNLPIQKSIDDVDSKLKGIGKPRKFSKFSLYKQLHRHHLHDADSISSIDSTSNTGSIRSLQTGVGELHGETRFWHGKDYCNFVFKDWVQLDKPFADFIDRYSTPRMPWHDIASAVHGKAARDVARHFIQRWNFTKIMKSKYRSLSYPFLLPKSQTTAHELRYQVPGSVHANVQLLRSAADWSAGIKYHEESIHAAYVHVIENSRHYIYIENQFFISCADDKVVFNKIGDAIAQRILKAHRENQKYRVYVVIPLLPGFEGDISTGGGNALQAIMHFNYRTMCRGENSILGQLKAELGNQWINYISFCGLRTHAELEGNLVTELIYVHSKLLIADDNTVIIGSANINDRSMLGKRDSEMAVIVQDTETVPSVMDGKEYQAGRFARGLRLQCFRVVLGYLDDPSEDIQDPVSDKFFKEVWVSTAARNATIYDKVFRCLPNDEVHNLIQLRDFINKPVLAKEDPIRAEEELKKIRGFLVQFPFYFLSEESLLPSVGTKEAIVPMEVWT
Sequence of full-length human PLD2 (O14939 whole entry, the tested form may be a part): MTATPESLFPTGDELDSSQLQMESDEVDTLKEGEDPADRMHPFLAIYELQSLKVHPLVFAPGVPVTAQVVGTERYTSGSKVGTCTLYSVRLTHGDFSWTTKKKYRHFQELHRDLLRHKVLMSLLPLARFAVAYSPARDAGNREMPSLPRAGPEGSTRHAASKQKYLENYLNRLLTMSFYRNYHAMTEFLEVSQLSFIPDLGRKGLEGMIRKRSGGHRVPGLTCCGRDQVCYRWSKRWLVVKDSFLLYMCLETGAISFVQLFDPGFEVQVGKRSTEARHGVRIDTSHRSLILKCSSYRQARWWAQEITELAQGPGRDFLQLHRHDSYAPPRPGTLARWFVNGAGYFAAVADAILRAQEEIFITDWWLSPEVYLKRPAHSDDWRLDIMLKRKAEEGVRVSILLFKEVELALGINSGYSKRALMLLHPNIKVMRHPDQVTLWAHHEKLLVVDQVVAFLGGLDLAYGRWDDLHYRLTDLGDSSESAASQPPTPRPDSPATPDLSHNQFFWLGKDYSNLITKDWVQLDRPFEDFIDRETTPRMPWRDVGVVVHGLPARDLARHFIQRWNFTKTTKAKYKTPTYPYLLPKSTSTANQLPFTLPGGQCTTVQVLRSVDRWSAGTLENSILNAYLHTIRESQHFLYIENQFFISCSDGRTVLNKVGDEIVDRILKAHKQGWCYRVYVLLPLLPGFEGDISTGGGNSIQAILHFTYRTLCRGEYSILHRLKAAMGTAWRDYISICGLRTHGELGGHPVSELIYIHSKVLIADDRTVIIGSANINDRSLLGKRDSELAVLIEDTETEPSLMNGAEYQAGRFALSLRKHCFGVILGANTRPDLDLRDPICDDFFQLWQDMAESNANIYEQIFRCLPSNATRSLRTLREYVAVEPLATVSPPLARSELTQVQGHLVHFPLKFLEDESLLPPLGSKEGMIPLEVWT

SMILES | pIC50 (full-length human PLD2) | pIC50 (full-length human PLD1)
CC(=O)NCC(=O)N[C@@H](C)C[C@H]1CC[C@]2(CC1)OC(=O)NN=C2c1ccc(F)cc1Br [Example 213] | 6.94 | 7.07
[2H]C([2H])([2H])NC(=O)C(=O)NC(C)CN1CCC2(CC1)OC(=O)NN=C2c1cc(C#N)ccc1Cl (centres unmarked) [Example 2-008] | 7.96 | 7.21
C[C@@H](C[C@H]1CC[C@]2(CC1)OC(=O)NN=C2c1ccc(F)cc1Br)NC(=O)N1CCOC2(CC2)C1 [Example 283] | 7.32 | 7.37
CNC(=O)C(=O)N[C@@H](C)C[C@H]1CC[C@]2(CC1)OC(=O)NN=C2c1cc(OCC(F)(F)F)ccc1Br [Example 296] | > 8.00 | 7.89
C[C@@H](CN1CCC2(CC1)OC(=O)NN=C2c1cc(C#N)ccc1Br)NC(=O)c1ccccc1C(F)(F)F [Example 2-029] | 5.08 | 5.82
CNC(=O)C(=O)N[C@@H](C)C[C@H]1CC[C@]2(CC1)OC(=O)NN=C2c1cc(C(C)(C)O)ccc1Br [Example 2-026] | > 8.00 | 7.92
COc1cc(C)c(C2=NNC(=O)O[C@]23CC[C@@H](C[C@H](C)NC(=O)CC#N)CC3)cn1 [Example 263] | 5.35 | 5.56
C[C@@H](C[C@H]1CC[C@]2(CC1)OC(=O)NN=C2c1ccc(F)cc1Br)NC(=O)c1cn(C)nn1 [Example 76] | 7.77 | 7.77
CNC(=O)C(=O)N[C@@H](C)CC1CCC2(CC1)OC(=O)NN=C2c1ccncc1C (mixture of isomers) [Example 125] | 7.24 | 7.40
Cc1cc(C(=O)N[C@@H](C)C[C@H]2CC[C@]3(CC2)OC(=O)NN=C3c2ccc(C#N)cc2C)[nH]n1 [Example 153] | 7.55 | 7.57
COc1cc(C)c(C2=NNC(=O)O[C@]23CC[C@@H](C[C@H](C)NC(=O)C(=O)NC2CC2)CC3)cn1 [Example 220] | 7.48 | 7.38
COc1cc(C)c(C2=NNC(=O)O[C@]23CC[C@@H](C[C@H](C)NC(=O)N2CCc4nocc4C2)CC3)cn1 [Example 260] | > 8.00 | 7.51
CNC(=O)C(=O)N[C@@H](C)C[C@H]1CC[C@]2(CC1)OC(=O)NN=C2c1cnc(C#N)cc1C [Example 188] | 7.48 | 7.36
COC(=O)N[C@@H](C)C[C@H]1CC[C@]2(CC1)OC(=O)NN=C2c1ccc(F)cc1C [Example 156] | 6.39 | 6.63
Cc1cc(C(=O)N[C@@H](C)C[C@]2(O)CC[C@]3(CC2)OC(=O)NN=C3c2ccc(F)cc2Br)[nH]n1 [Example 320, N—((S)-1-(cis-5-(2-bromo-4-fluorophenyl)-9-hydroxy-2-oxo-1-oxa-3,4-diazaspiro[5.5]undec-4-en-9-yl)propan-2-yl)-3-methyl-1H-pyrazole-5-carboxamide] | 5.80 | 5.41
CNC(=O)C(=O)N[C@@H](C)C[C@H]1CC[C@]2(CC1)OC(=O)NN=C2c1ccccc1SC [Example 74] | > 8.00 | > 8.00
CNC(=O)C(=O)N[C@@H](C)CN1CC2CC1CC21OC(=O)NN=C1c1ccc(F)cc1Br (mixture of isomers) [Example 2-005] | 7.46 | 6.36
Cc1cnc(C(=O)N[C@@H](C)C[C@H]2CC[C@]3(CC2)OC(=O)NN=C3c2ccc(F)cc2Br)cn1 [Example 253] | 6.49 | 6.60
CNC(=O)C(=O)N[C@@H](C)C[C@H]1CC[C@]2(CC1)OC(=O)NN=C2c1cnccc1C [Example 112] | 7.70 | 7.51
CC(C)S(=O)(=O)c1ccc(C2=NNC(=O)O[C@]23CC[C@@H](C[C@H](C)NC(=O)c2cc(Cl)no2)CC3)c(Br)c1 [Example 67] | > 8.00 | > 8.00
CNC(=O)C(=O)N[C@@H](C)C[C@H]1CC[C@]2(CC1)OC(=O)NN=C2c1ccc(F)cc1C(F)(F)F [Example 56] | 7.77 | 7.59
C[C@@H](C[C@H]1CC[C@]2(CC1)OC(=O)NN=C2c1ccc(OC(F)(F)F)cc1Br)NC(=O)NC1CC1 [Example 195] | 7.17 | 7.41
C[C@@H](C[C@H]1CC[C@]2(CC1)OC(=O)NN=C2c1cccc(C#N)c1Br)NC(=O)C(=O)NC1CC1 [Example 316] | 7.21 | 7.34
CNC(=O)C(=O)N[C@@H](C)CN1CCC2(CC1)OC(=O)NN=C2c1ccc(F)cc1Br [Example 179, (S)—N^1-(1-(5-(2-bromo-4-fluorophenyl)-2-oxo-1-oxa-3,4,9-triazaspiro[5.5]undec-4-en-9-yl)propan-2-yl)-N^2-methyloxamide] | > 8.00 | 7.60
COc1ccc(C2=NNC(=O)O[C@]23CC[C@@H](C[C@H](C)NC(=O)c2cc(Cl)no2)CC3)c(Br)c1 [Example 59] | > 8.00 | > 8.00
